Data reported in US8735387B2, “Oxazolopyrimidines as Edg-1 receptor agonists” (Sanofi, priority 2008, dated 2014).

Biological target: T1, human Edg-1 receptor (Homo sapiens, UniProt P21453)
T1 construct: expressed in transfected cells; membrane preparation
Assay: GTP-γ-S assay using human Edg-1 receptors (scintillation proximity assay, membrane preparation from CHO Flp-In cell line)
Assay type: biochemical
Settings: example compound at 10 μM; relative to 10 μM S1P; GTP-γ-S SPA, human Edg-1 membranes; read-out: % Activation (Edg-1 receptor activation in percent of the activation by 10 μM S1P)
Outline: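 Scintillation proximity GTP-γ-S binding assay measuring receptor activation. Membranes prepared from a CHO Flp-In line stably overexpressing N-terminally FLAG-tagged human Edg-1.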

T1 sequence (P21453 whole entry): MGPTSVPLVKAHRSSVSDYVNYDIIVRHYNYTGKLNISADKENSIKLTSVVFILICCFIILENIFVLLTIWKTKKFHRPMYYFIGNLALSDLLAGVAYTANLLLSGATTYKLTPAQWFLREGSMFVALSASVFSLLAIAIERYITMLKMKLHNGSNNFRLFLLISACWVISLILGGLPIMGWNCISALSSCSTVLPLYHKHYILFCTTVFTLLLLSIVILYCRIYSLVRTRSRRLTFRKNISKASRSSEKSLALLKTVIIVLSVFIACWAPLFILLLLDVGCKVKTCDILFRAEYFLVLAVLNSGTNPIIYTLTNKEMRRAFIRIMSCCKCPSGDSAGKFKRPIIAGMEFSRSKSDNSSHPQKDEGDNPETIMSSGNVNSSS

activation at 10 µM: 83%
Structure (SMILES): CCOc1nc(Cc2ccc(Cl)cc2)nc2oc(-c3cc(C)c(OCC(O)CSc4nnc(C(C)C)[nH]4)c(C)c3)nc12 (stereo not shown) [Example 196, 1-{4-[5-(4-Chloro-benzyl)-7-ethoxy-oxazolo[5,4-d]pyrimidin-2-yl]-2,6-dimethyl-phenoxy}-3-(5-isopropyl-4H-[1,2,4]triazol-3-ylsulfanyl)-propan-2-ol]
